Entries after “also recorded” stand apart in the source; their conditions may differ. Blank lines part the entries; values can stand above or below the substance they belong to. Where no end group is shown, it is not given here. [ ]: non-standard residue; d: D form. Nle = CCCC[C@H](N)C(=O)O
Experiments:
Type in all cases: biochemical
SMYD2 [1] = target: T1, SMYD2 (Homo sapiens, UniProt Q9NRG4); experiment: SPA initial rate measurements with peptide substrates, SMYD2; conditions: 200 nM SMYD2, 50 μM SAM (5:1 cold/hot), 80 μM substrate, room temperature, mean of three independent measurements (Fig. 2F), text gives words only
T1 construct: SMYD2 (full length) was expressed as a N-terminal glutathione S-transferase (GST) fusion; GST (N); made in house; host or cells: Escherichia coli BL21(DE3)
T1 sequence (Q9NRG4 whole entry, the tested form may be a part): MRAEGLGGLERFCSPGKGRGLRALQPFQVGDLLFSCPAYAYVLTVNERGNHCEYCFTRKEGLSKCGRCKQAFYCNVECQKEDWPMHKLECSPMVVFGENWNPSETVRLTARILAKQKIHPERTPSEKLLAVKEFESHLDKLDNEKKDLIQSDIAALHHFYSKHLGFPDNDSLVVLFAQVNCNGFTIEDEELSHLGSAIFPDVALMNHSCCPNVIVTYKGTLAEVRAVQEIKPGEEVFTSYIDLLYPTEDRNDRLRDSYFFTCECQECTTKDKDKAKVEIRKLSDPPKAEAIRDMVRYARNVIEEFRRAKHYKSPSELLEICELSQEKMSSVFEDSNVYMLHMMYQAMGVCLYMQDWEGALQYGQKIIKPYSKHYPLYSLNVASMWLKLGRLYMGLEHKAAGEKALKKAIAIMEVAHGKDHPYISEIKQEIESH
Text: To measure enzyme activity, we developed a scintillation proximity assay (SPA), which quantified the transfer of tritium-labeled methyl groups from the cofactor and methyl donor S-adenosylmethionine (SAM) to each K-OPL set (Fig. 1B). SPAs permit sensitive analysis of enzymatic activity and are advantageous when the reaction product is unknown. This platform enabled us to rapidly determine a KMT’s preference for any amino acid (except cysteine) at any position ± three positions from a target lysine.
(§1) Reactions (10 μl) containing 1 μg of KMT, 1 μg of a K-OPL set, and 1 μCi of ^3H-SAM (PerkinElmer) in KMT reaction buffer [50 mM tris (pH 8.8), 5 mM MgCl2, and 4 mM dithiothreitol] were incubated for 1 hour at room temperature. Reactions were stopped by adding trifluoracetic acid to a final concentration of 0.5%, neutralized by diluting with 135 μl of 50 mM NaHCO3, and transferred to streptavidin-coated FlashPlates (PerkinElmer). Plates were incubated for 15 min, sealed, and counted in a MicroBeta2 liquid scintillation counter (PerkinElmer) for 1 min per sample. Initial rate measure and kinetic analysis were performed using the same procedure with 200 nM SMYD2, 50 μM SAM (5:1 cold/hot ratio), and 80 μM substrate (initial rate measurements) or as indicated (kinetic analysis). IC50 measurements were performed using the same conditions with 5 μM PER2 peptide as a substrate.

SMYD2 [2] = target: T1, SMYD2; experiment: SPA kinetic analysis of SMYD2 methylation of peptide substrates; conditions: 200 nM SMYD2, 50 μM SAM, varied substrate concentration, mean of three independent measurements (Fig. 4D)
Experimental: as §1

SMYD2 [3] = target: T1, SMYD2; experiment: In vitro SMYD2 methyltransferase assay with protein substrates (SDS-PAGE, 3H fluorography); conditions: 1 μg of KMT, 1 μg of substrate, 1 μCi 3H-SAM, 1 hour, room temperature; 3H fluorography (Fig. 5A, 5B, fig. S5A)
Experimental: Reactions (10 μl) containing 1 μg of KMT, 1 μg of the indicated substrates, and 1 μCi of ^3H-SAM (PerkinElmer) in KMT reaction buffer were incubated for 1 hour at room temperature. Reactions were quenched by the addition of SDS loading buffer and resolved by SDS–polyacrylamide gel electrophoresis. Following the detection of total protein by Coomassie staining, gels were treated with EN^3HANCE (PerkinElmer) and dried, and methylated proteins were detected by autoradiography.
Fig. S5. In vitro SMYD2 assays with protein substrates. (A) Coomassie stained SDS-PAGE of recombinant control (HIS-GST), known substrates (p53, MAPKAPK3), and predicted substrates (PRDM11, GDAP1, MAP3K12) in the absence and presence of SMYD2. Reactions were carried out with 1 μg of SMYD2, 1 μg of substrate, and 1 μCi of 3H-SAM. 3H fluorograph shown below after 24 hour exposure at -80 °C (B) Cartoon repre- sentation of ZPK (PDB:
5CEN) showing plus and minus three amino acids from the target lysine (PO) as stick models.
(1 picture or pasted object on this page, not shown here)

SMYD2 [4] = target: T1, SMYD2; experiment: IC50 measurements of Nle peptide inhibitors of SMYD2 using PER2 as a substrate (SPA); conditions: 200 nM SMYD2, 50 μM SAM, 5 μM PER2 peptide as substrate, mean of three (Fig. 4E), IC50 values not given
Experimental: as §1

SMYD2 [5] = target: T1, SMYD2; experiment: MALDI-TOF-MS and MS/MS analysis of methylation products, SMYD2; conditions: 200 nM KMT, 80 μM peptide, 50 μM SAM, 1 hour, room temperature; MALDI-TOF-MS (Fig. 3C)
Experimental: (§2) For MS experiments, 200 nM KMT, 80 μM peptide, and 50 μM SAM were incubated in KMT reaction buffer for 1 hour at room temperature. Reactions were quenched with 0.5% trifluoroacetic acid and analyzed by MS. KMT-reacted samples were deposited on a MALDI target plate (4 μl per spot) and mixed with 1 μl of matrix solution (α-cyano-4-hydroxycinnamic acid in 50% acetonitrile). MALDI-TOF-MS and MS/MS (positive ion mode at 1 kV) spectra were collected using SCIEX TOF/TOF 5800 MALDI MS spectrometer. The peptide fragmentation modeling and peak assignments were done using the Peptide Sequence Fragmentation Modeling tool (https://omics.pnl.gov/software/molecular-weight-calculator).

G9a [6] = target: T2, G9a (Homo sapiens, UniProt Q96KQ7); experiment: MALDI-TOF-MS and MS/MS analysis of methylation products, G9a; conditions: 200 nM KMT, 80 μM peptide, 50 μM SAM, 1 hour, room temperature; MALDI-TOF-MS (Fig. 3A)
T2 construct: G9a (amino acids 913 to 1210) was produced as a 6XHis N-terminal fusion; 6XHis (N); made in house; host or cells: Escherichia coli BL21(DE3)
T2 sequence (Q96KQ7 913-1210): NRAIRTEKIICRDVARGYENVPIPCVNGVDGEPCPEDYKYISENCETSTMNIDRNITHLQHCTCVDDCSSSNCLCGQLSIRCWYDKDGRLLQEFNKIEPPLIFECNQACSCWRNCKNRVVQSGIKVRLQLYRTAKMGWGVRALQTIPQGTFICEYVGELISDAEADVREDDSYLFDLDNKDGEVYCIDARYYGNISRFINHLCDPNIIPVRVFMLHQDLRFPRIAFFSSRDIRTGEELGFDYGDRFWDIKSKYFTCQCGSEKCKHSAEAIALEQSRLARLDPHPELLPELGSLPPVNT
Experimental: as §2

G9a [7] = target: T2, G9a; experiment: SPA initial rate measurements with peptide substrates, G9a; conditions: 3H-SAM, 50 μM SAM (5:1 cold/hot), 80 μM substrate, room temperature, mean of three independent measurements (Fig. 2D), text gives words only
SET7/9 [8] = target: T3, SET7/9 (Homo sapiens, UniProt Q8WTS6); experiment: MALDI-TOF-MS and MS/MS analysis of methylation products, SET7/9; conditions: 200 nM KMT, 80 μM peptide, 50 μM SAM, 1 hour, room temperature; MALDI-TOF-MS (Fig. 3B)
T3 construct: purchased New England BioLabs M0223
T3 sequence (Q8WTS6 1-366): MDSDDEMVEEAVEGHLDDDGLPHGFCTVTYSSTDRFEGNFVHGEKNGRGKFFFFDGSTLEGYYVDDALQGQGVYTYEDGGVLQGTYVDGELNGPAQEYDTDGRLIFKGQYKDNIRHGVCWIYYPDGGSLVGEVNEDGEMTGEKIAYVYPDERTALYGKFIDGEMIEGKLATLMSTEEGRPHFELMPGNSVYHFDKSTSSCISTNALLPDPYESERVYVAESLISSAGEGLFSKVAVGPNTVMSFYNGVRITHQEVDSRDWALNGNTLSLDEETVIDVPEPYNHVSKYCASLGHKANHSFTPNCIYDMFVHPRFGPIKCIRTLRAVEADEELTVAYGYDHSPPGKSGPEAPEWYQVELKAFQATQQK
Experimental: as §2

SET7/9 [9] = target: T3, SET7/9; experiment: SPA initial rate measurements with peptide substrates, SET7/9; conditions: 3H-SAM, 50 μM SAM (5:1 cold/hot), 80 μM substrate, room temperature, mean of three independent measurements (Fig. 2E), text gives words only

Substance: PRDM11: recombinant PRDM11 (amino acids 79 to 314)
methylation of recombinant protein substrate by SMYD2 (SMYD2 [3]): methylated by SMYD2; also recorded: at least as efficiently as the known substrate, p53

Substance: RKD[Nle]SKR [Nle derivative of RKDKSKR]
inhibition of SMYD2 methylation of PER2 (SMYD2 [4]): less effective

Substance: RKLKSKR [PER2 K798, peptide corresponding to lysine 798 of PER2; SMYD2 substrate]
rate of methylation by SMYD2 (substrate efficiency) (SMYD2 [1]): more efficient substrate than peptides corresponding to previously reported SMYD2 substrates p53 K370 and MAPKAPK3 K355
methylation products with SMYD2 (SMYD2 [5]): addition of a single methyl group

Substance: RKLKEKR [PER2 derivative peptide with glutamic acid in the P+1 position]
rate of methylation by SMYD2 (substrate efficiency) (SMYD2 [1]): equally poor SMYD2 substrates

Substance: DKLKSKR [PER2 derivative peptide with aspartic acid in the P−3 position]
kinetic model of SMYD2 methylation (SMYD2 [2]): followed a classical MM model

Substance: RKDKSKR [PER2 derivative peptide with aspartic acid in the P−1 position]
rate of methylation by SMYD2 (substrate efficiency) (SMYD2 [1]): equally poor SMYD2 substrates

Substance: PRDM11 K89D: PRDM11 mutant predicted to render this SMYD2 substrate deficient
methylation of recombinant protein substrate by SMYD2 (SMYD2 [3]): reduced compared to the wild-type PRDM11

Second part, led by results:

rate of methylation by SMYD2 (substrate efficiency) (SMYD2 [1]): increased the rate of methylation
kinetic model of SMYD2 methylation (SMYD2 [2]): consistent with substrate inhibition
Substance: WKLKSKR [optimal K-OPL-derived SMYD2 substrate, not found in any human protein]

kinetic model of SMYD2 methylation (SMYD2 [2]): standard Michaelis-Menten (MM) model
kinetic model of SMYD2 methylation (SMYD2 [2]; listed as p53): classical MM kinetics
Substance: SHLKSKK [p53 K370, peptide corresponding to previously reported SMYD2 substrate p53 K370, reference compound]

methylation products with G9a (G9a [6]): both monomethyl and dimethyl products
Substance: TARKRFK [optimal G9a peptide substrate derived from the K-OPL profile]
rate of methylation by G9a (substrate efficiency) (G9a [7]): more efficient substrate than H3K9 or WIZ

methylation products with SET7/9 (SET7/9 [8]): addition of a single methyl group
Substance: RRSKRRK [SCN5A K477, optimal SET7/9 substrate predicted by K-OPL]
rate of methylation by SET7/9 (substrate efficiency) (SET7/9 [9]): methylated at a faster rate than p53 K372

From paper PMC6261651, “A functional proteomics platform to reveal the sequence determinants of lysine methyltransferase substrate selectivity” (Science Advances, 2018)
